Where two headings read alike, the source gives them in different places.
Experiments:
[1] = system: PSMA + PC3-PIP and PSMA-PC3-flu flank xenografts; settings: for Biodistribution, Blood / Biodistribution, Flu tumor / Biodistribution, Kidneys / Biodistribution, Lacrimal glands / Biodistribution, Pip (tumor) / Biodistribution, Salivary glands / Biodistribution, Spleen / Biodistribution, Stomach: without cold blocking agent
Method: Final compounds were purified by HPLC. […] Organs were harvested 1, 4, and 24 h post-injection (n=5 per time point).

[2] = system: PSMA+PC3-PIP and PSMA-PC3-flu flank xenografts; assay: Biodistribution of [125I/211At]2 and 3 with and without co-injection of DCIBzL (Example 6); format: in vivo, athymic mice
Description: Final compounds were purified by HPLC.

O=C([O-])CN1CCN(CC(=O)[O-])CCN(CC(=O)NCCCCC(=O)N(CCCC[C@H](NC(=O)N[C@@H](CCC(=O)O)C(=O)O)C(=O)O)Cc2ccc([125I])cc2)CCN(CC(=O)[O-])CC1.[Lu+3] [[^125I]VK-02-90-Lu]
Biodistribution, Blood ([1]; 1 H): 1.2 ± 0.4 % injected dose/g
Biodistribution, Flu tumor ([1]; 1 H): 0.9 ± 0.3 % injected dose/g
Biodistribution, Kidneys ([1]; 1 H): 180 ± 36 % injected dose/g
Biodistribution, Lacrimal glands ([1]; 1 H): 4.1 ± 1.3 % injected dose/g
Biodistribution, Pip (tumor) ([1]; 1 H): 51 ± 8.5 % injected dose/g
Biodistribution, Salivary glands ([1]; 1 H): 1.0 ± 0.3 % injected dose/g
Biodistribution, Spleen ([1]; 1 H): 7.4 ± 2.6 % injected dose/g
Biodistribution, Stomach ([1]; 1 H): 0.7 ± 0.4 % injected dose/g
Biodistribution, Blood ([1]; 4 H): 0.06 ± 0.06 % injected dose/g
Biodistribution, Flu tumor ([1]; 4 H): 0.3 ± 0.5 % injected dose/g
Biodistribution, Kidneys ([1]; 4 H): 18.2 ± 4.9 % injected dose/g
Biodistribution, Lacrimal glands ([1]; 4 H): 0.3 ± 0.1 % injected dose/g
Biodistribution, Pip (tumor) ([1]; 4 H): 27.8 ± 17 % injected dose/g
Biodistribution, Salivary glands ([1]; 4 H): 0.1 ± 0.05 % injected dose/g
Biodistribution, Spleen ([1]; 4 H): 0.6 ± 0.2 % injected dose/g
Biodistribution, Stomach ([1]; 4 H): 0.1 ± 0.1 % injected dose/g
Biodistribution, Blood ([1]; 24 H): 0.1 ± 0.01 % injected dose/g
Biodistribution, Flu tumor ([1]; 24 H): 0.03 ± 0.01 % injected dose/g
Biodistribution, Kidneys ([1]; 24 H): 3.3 ± 1.1 % injected dose/g
Biodistribution, Lacrimal glands ([1]; 24 H): 0.06 ± 0.03 % injected dose/g
Biodistribution, Pip (tumor) ([1]; 24 H): 24.0 ± 6.2 % injected dose/g
Biodistribution, Salivary glands ([1]; 24 H): 0.03 ± 0.01 % injected dose/g
Biodistribution, Spleen ([1]; 24 H): 0.1 ± 0.06 % injected dose/g
Biodistribution, Stomach ([1]; 24 H): 0.04 ± 0.01 % injected dose/g
clearance from the spleen, salivary glands, lacrimal glands and kidneys ([1]; compared with [^125I]VK-02-90): faster clearance
retention of radioactivity, lacrimal glands (LG) ([2]; 1h, no co-injection): 4.1±1.3 % ID/g
retention of radioactivity, salivary glands (SG) ([2]; 1h, no co-injection): 1.0±0.3 % ID/g
retention of radioactivity, kidneys (K) ([2]; 4 h, no co-injection): 18.2±4.9 % ID/g
retention of radioactivity, kidneys (K) ([2]; 24 h, no co-injection): 3.3±1.1 % ID/g
Stomach uptake ([2]; @ 1 h): 1.8±0.2 % ID/g
retention, K ([2]; @1 h, co-injection of DCIBzL): 4.2±1.3 % ID/g
retention, LG ([2]; @1 h, co-injection of DCIBzL): 0.5±0.1 % ID/g
retention, SG ([2]; @1 h, co-injection of DCIBzL): 3.2±0.7 % ID/g
Stomach uptake ([2]; @ 4 h): 0.8±0.5 % ID/g
Stomach uptake ([2]; @ 24 h): 0.1±0.04 % ID/g

Source: US11813340B2, “PSMA targeted radiohalogenated urea-polyaminocarboxylates for cancer radiotherapy” (The Johns Hopkins University, priority 2018, dated 2023)
